Assay: xn = mol fraction of the nth substance listed
Details: Liquid, Vibrating tube method

CCCCCCCCCCC [undecane] + CCCCCCC
Details	mass density [kg/m3]
342.97 K, 1001 kPa, x2 = 0.9511	645.7
342.97 K, 2000 kPa, x2 = 0.9511	647
342.97 K, 3000 kPa, x2 = 0.9511	648.4
342.97 K, 4000 kPa, x2 = 0.9511	649.7
342.97 K, 5000 kPa, x2 = 0.9511	650.9
342.97 K, 6000 kPa, x2 = 0.9511	652.2
342.97 K, 7000 kPa, x2 = 0.9511	653.4
342.97 K, 8000 kPa, x2 = 0.9511	654.6
342.97 K, 9000 kPa, x2 = 0.9511	655.8
342.97 K, 10000 kPa, x2 = 0.9511	657
342.97 K, 11000 kPa, x2 = 0.9511	658.1
342.97 K, 12000 kPa, x2 = 0.9511	659.2
342.97 K, 13000 kPa, x2 = 0.9511	660.3
342.97 K, 14001 kPa, x2 = 0.9511	661.4
342.97 K, 15001 kPa, x2 = 0.9511	662.5
342.97 K, 16000 kPa, x2 = 0.9511	663.5
342.97 K, 17001 kPa, x2 = 0.9511	664.5
342.97 K, 18001 kPa, x2 = 0.9511	665.6
342.97 K, 19000 kPa, x2 = 0.9511	666.6
342.97 K, 20000 kPa, x2 = 0.9511	667.5
342.97 K, 21001 kPa, x2 = 0.9511	668.5
342.97 K, 22000 kPa, x2 = 0.9511	669.4
342.97 K, 23001 kPa, x2 = 0.9511	670.4
342.97 K, 24000 kPa, x2 = 0.9511	671.3
342.97 K, 25000 kPa, x2 = 0.9511	672.2
343.01 K, 2001 kPa, x2 = 0.5063	680.1
343.01 K, 3000 kPa, x2 = 0.5063	681.2
343.01 K, 4000 kPa, x2 = 0.5063	682.3
343.01 K, 5000 kPa, x2 = 0.5063	683.4
343.01 K, 6000 kPa, x2 = 0.5063	684.5
343.01 K, 7000 kPa, x2 = 0.5063	685.5
343.01 K, 8001 kPa, x2 = 0.5063	686.5
343.01 K, 9000 kPa, x2 = 0.5063	687.6
343.01 K, 10000 kPa, x2 = 0.5063	688.6
343.01 K, 11000 kPa, x2 = 0.5063	689.5
343.01 K, 12000 kPa, x2 = 0.5063	690.5
343.01 K, 13000 kPa, x2 = 0.5063	691.5
343.01 K, 14000 kPa, x2 = 0.5063	692.4
343.01 K, 15000 kPa, x2 = 0.5063	693.4
343.01 K, 16000 kPa, x2 = 0.5063	694.3
343.01 K, 17001 kPa, x2 = 0.5063	695.2
343.01 K, 18000 kPa, x2 = 0.5063	696.1
343.01 K, 19000 kPa, x2 = 0.5063	697
343.01 K, 20000 kPa, x2 = 0.5063	697.8
343.01 K, 21001 kPa, x2 = 0.5063	698.7
343.01 K, 22050 kPa, x2 = 0.5063	699.5
343.01 K, 23000 kPa, x2 = 0.5063	700.4
343.01 K, 24000 kPa, x2 = 0.5063	701.2
343.01 K, 25000 kPa, x2 = 0.5063	702
343.02 K, 1001 kPa, x2 = 0.05	701.5
343.02 K, 2001 kPa, x2 = 0.05	702.5
343.02 K, 3000 kPa, x2 = 0.05	703.6
343.02 K, 4000 kPa, x2 = 0.05	704.6
343.02 K, 5000 kPa, x2 = 0.05	705.5
343.02 K, 6000 kPa, x2 = 0.05	706.5
343.02 K, 7000 kPa, x2 = 0.05	707.5
343.02 K, 8001 kPa, x2 = 0.05	708.4
343.02 K, 9000 kPa, x2 = 0.05	709.3
343.02 K, 10000 kPa, x2 = 0.05	710.2
343.02 K, 11000 kPa, x2 = 0.05	711.1
343.02 K, 12000 kPa, x2 = 0.05	712
343.02 K, 13000 kPa, x2 = 0.05	712.9
343.02 K, 14000 kPa, x2 = 0.05	713.8
343.02 K, 15000 kPa, x2 = 0.05	714.6
343.02 K, 16000 kPa, x2 = 0.05	715.5
343.02 K, 17000 kPa, x2 = 0.05	716.3
343.02 K, 18000 kPa, x2 = 0.05	717.1
343.02 K, 19000 kPa, x2 = 0.05	717.9
343.02 K, 20000 kPa, x2 = 0.05	718.7
343.02 K, 21000 kPa, x2 = 0.05	719.5
343.02 K, 22001 kPa, x2 = 0.05	720.3
343.02 K, 23000 kPa, x2 = 0.05	721.1
343.02 K, 24000 kPa, x2 = 0.05	721.8
343.02 K, 25000 kPa, x2 = 0.05	722.6
343.03 K, 1000 kPa, x2 = 0.7482	662.4
343.03 K, 2000 kPa, x2 = 0.7482	663.6
343.03 K, 3000 kPa, x2 = 0.7482	664.9
343.03 K, 4000 kPa, x2 = 0.7482	666.1
343.03 K, 5000 kPa, x2 = 0.7482	667.2
343.03 K, 6000 kPa, x2 = 0.7482	668.4
343.03 K, 7000 kPa, x2 = 0.7482	669.5
343.03 K, 8000 kPa, x2 = 0.7482	670.6
343.03 K, 9000 kPa, x2 = 0.7482	671.7
343.03 K, 10000 kPa, x2 = 0.7482	672.8
343.03 K, 11000 kPa, x2 = 0.7482	673.9
343.03 K, 12000 kPa, x2 = 0.7482	674.9
343.03 K, 13000 kPa, x2 = 0.7482	675.9
343.03 K, 14000 kPa, x2 = 0.7482	677
343.03 K, 15000 kPa, x2 = 0.7482	678
343.03 K, 16000 kPa, x2 = 0.7482	678.9
343.03 K, 17000 kPa, x2 = 0.7482	679.9
343.03 K, 18000 kPa, x2 = 0.7482	680.8
343.03 K, 19000 kPa, x2 = 0.7482	681.8
343.03 K, 20000 kPa, x2 = 0.7482	682.7
343.03 K, 21000 kPa, x2 = 0.7482	683.6
343.03 K, 22000 kPa, x2 = 0.7482	684.5
343.03 K, 23000 kPa, x2 = 0.7482	685.4
343.03 K, 24000 kPa, x2 = 0.7482	686.2
343.03 K, 25000 kPa, x2 = 0.7482	687.1
343.06 K, 1010 kPa, x2 = 0.2346	693.6
343.06 K, 2010 kPa, x2 = 0.2346	694.6
343.06 K, 3010 kPa, x2 = 0.2346	695.7
343.06 K, 4011 kPa, x2 = 0.2346	696.7
343.06 K, 5011 kPa, x2 = 0.2346	697.7
343.06 K, 6011 kPa, x2 = 0.2346	698.7
343.06 K, 7012 kPa, x2 = 0.2346	699.7
343.06 K, 8012 kPa, x2 = 0.2346	700.6
343.06 K, 9012 kPa, x2 = 0.2346	701.6
343.06 K, 10013 kPa, x2 = 0.2346	702.5
343.06 K, 11013 kPa, x2 = 0.2346	703.5
343.06 K, 12014 kPa, x2 = 0.2346	704.4
343.06 K, 13014 kPa, x2 = 0.2346	705.3
343.06 K, 14014 kPa, x2 = 0.2346	706.2
343.06 K, 15015 kPa, x2 = 0.2346	707
343.06 K, 16016 kPa, x2 = 0.2346	707.9
343.06 K, 17016 kPa, x2 = 0.2346	708.8
343.06 K, 18017 kPa, x2 = 0.2346	709.6
343.06 K, 19017 kPa, x2 = 0.2346	710.4
343.06 K, 20018 kPa, x2 = 0.2346	711.3
343.06 K, 21051 kPa, x2 = 0.2346	712.1
343.06 K, 22053 kPa, x2 = 0.2346	712.9
343.06 K, 23055 kPa, x2 = 0.2346	713.7
343.06 K, 24057 kPa, x2 = 0.2346	714.5
343.06 K, 25059 kPa, x2 = 0.2346	715.2
352.9 K, 1001 kPa, x2 = 0.9511	636.9
352.9 K, 2000 kPa, x2 = 0.9511	638.4
352.9 K, 3000 kPa, x2 = 0.9511	639.8
352.9 K, 4000 kPa, x2 = 0.9511	641.1
352.9 K, 5000 kPa, x2 = 0.9511	642.5
352.9 K, 6000 kPa, x2 = 0.9511	643.8
352.9 K, 7000 kPa, x2 = 0.9511	645.1
352.9 K, 8000 kPa, x2 = 0.9511	646.4
352.9 K, 9000 kPa, x2 = 0.9511	647.7
352.9 K, 10000 kPa, x2 = 0.9511	648.9
352.9 K, 11000 kPa, x2 = 0.9511	650.1
352.9 K, 12000 kPa, x2 = 0.9511	651.3
352.9 K, 13000 kPa, x2 = 0.9511	652.5
352.9 K, 14001 kPa, x2 = 0.9511	653.6
352.9 K, 15001 kPa, x2 = 0.9511	654.8
352.9 K, 16000 kPa, x2 = 0.9511	655.9
352.9 K, 17001 kPa, x2 = 0.9511	657
352.9 K, 18001 kPa, x2 = 0.9511	658
352.9 K, 19000 kPa, x2 = 0.9511	659.1
352.9 K, 20000 kPa, x2 = 0.9511	660.1
352.9 K, 21001 kPa, x2 = 0.9511	661.2
352.9 K, 22000 kPa, x2 = 0.9511	662.2
352.9 K, 23001 kPa, x2 = 0.9511	663.2
352.9 K, 24000 kPa, x2 = 0.9511	664.1
352.9 K, 25000 kPa, x2 = 0.9511	665.1
352.96 K, 1001 kPa, x2 = 0.05	694
352.96 K, 2001 kPa, x2 = 0.05	695.1
352.96 K, 2001 kPa, x2 = 0.5063	672.2
352.96 K, 3000 kPa, x2 = 0.05	696.1
352.96 K, 3000 kPa, x2 = 0.5063	673.4
352.96 K, 4000 kPa, x2 = 0.05	697.2
352.96 K, 4000 kPa, x2 = 0.5063	674.6
352.96 K, 5000 kPa, x2 = 0.05	698.2
352.96 K, 5000 kPa, x2 = 0.5063	675.7
352.96 K, 6000 kPa, x2 = 0.05	699.2
352.96 K, 6000 kPa, x2 = 0.5063	676.8
352.96 K, 7000 kPa, x2 = 0.05	700.2
352.96 K, 7000 kPa, x2 = 0.5063	677.9
352.96 K, 8001 kPa, x2 = 0.05	701.2
352.96 K, 8001 kPa, x2 = 0.5063	679
352.96 K, 9000 kPa, x2 = 0.05	702.2
352.96 K, 9000 kPa, x2 = 0.5063	680.1
352.96 K, 10000 kPa, x2 = 0.05	703.2
352.96 K, 10000 kPa, x2 = 0.5063	681.2
352.96 K, 11000 kPa, x2 = 0.05	704.1
352.96 K, 11000 kPa, x2 = 0.5063	682.2
352.96 K, 12000 kPa, x2 = 0.05	705.1
352.96 K, 12000 kPa, x2 = 0.5063	683.2
352.96 K, 13000 kPa, x2 = 0.05	706
352.96 K, 13000 kPa, x2 = 0.5063	684.2
352.96 K, 14000 kPa, x2 = 0.05	706.9
352.96 K, 14000 kPa, x2 = 0.5063	685.2
352.96 K, 15000 kPa, x2 = 0.05	707.8
352.96 K, 15000 kPa, x2 = 0.5063	686.2
352.96 K, 16000 kPa, x2 = 0.05	708.7
352.96 K, 16000 kPa, x2 = 0.5063	687.2
352.96 K, 17000 kPa, x2 = 0.05	709.6
352.96 K, 17001 kPa, x2 = 0.5063	688.1
352.96 K, 18000 kPa, x2 = 0.05	710.4
352.96 K, 18000 kPa, x2 = 0.5063	689.1
352.96 K, 19000 kPa, x2 = 0.05	711.3
352.96 K, 19000 kPa, x2 = 0.5063	690

Source: the NIST ThermoML archive (doi:10.1021/je400055v)
